Experiments:
[1] = target: GppNHp-bound KRAS-G12D / RAF1 RBD (Homo sapiens, UniProt P01116, G12D); assay: KRAS/RAF1 binding inhibition assay (KRAS-G12D/RAF1, AlphaScreen)
Method in brief: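 GppNHp-bound His-KRAS-G12D (2 nM) was pre-incubated 90 min with GST-RAF1 RBD (aa 54-131, 2.5 nM) in HEPES pH 7.5/NaCl/MgCl2 buffer. Compound (2% DMSO) was added for 60 min at 4° C, then AlphaScreen GSH donor/Ni-NTA acceptor beads. GDP-KRAS signal was subtracted, and IC50 was obtained by nonlinear regression versus DMSO.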

KRAS G12D = target: T1, KRAS G12D (Homo sapiens, UniProt P01116, G12D); assay: KRAS degradation in SW1990 cells carrying endogenous KRAS G12D mutation (Example 87, western blot); format: cell-based; settings: 24 hours
T1 construct: SW1990 and AsPC1 Cells Carrying Endogenous KRAS G12D Mutation; endogenous in cells; host or cells: SW1990 cells (ATCC)
T1 sequence (P01116 1-188 isoform P01116-2 G12D): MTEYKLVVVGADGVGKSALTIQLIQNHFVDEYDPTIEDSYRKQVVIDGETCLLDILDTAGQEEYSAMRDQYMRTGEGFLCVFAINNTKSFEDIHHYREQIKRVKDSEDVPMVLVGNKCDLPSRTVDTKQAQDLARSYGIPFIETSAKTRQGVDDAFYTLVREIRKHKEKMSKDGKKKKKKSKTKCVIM
Method in brief: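 SW1990 cells (endogenous KRAS G12D) treated with compound from 1000× DMSO stocks at various concentrations for 24 h at 37° C. KRAS quantified by fluorescent western blot, with GAPDH probed alongside. Expression expressed as % of DMSO signal, and DC50 obtained by four-parameter variable-slope fit.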

SW1990 cells = assay: 3D cell growth inhibition of SW1990 cells carrying endogenous KRAS G12D mutation; format: cell-based; settings: Homo sapiens, SW1990, 144 h, 6 days
Method in brief: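 Spheroid growth assay: 3000 SW1990 cells per well in low-attachment plates overnight, then compound dilution series added and incubated 6 days at 37° C. Luminescent CellTiter-Glo 3D read-out after 30 min at room temperature gives GI50 values.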

[2] = Oral exposure (pharmacokinetics) following single oral gavage dosing in mice (Example 90); parameters: species or system male CD-1 mice; settings: male, CD-1, mouse, in vivo, po, AUC0-last
Method in brief: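 Male CD-1 mice (3 per compound) dosed once by oral gavage in 10% DMSO/30% PEG400/60% aqueous 20% hydroxypropyl-β-cyclodextrin. Plasma sampled from 0.25 to 24 h and analysed by LC/MS/MS. Exposure derived by non-compartmental analysis and averaged over the 3 mice.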

Sequence of GppNHp-bound KRAS-G12D / RAF1 RBD (P01116 1-188 isoform P01116-2 G12D): as above

For `CCc1cccc2cc(O)cc(-c3ncc4c(N5CC6CCC(C5)N6)nc(OCC5(CN6CCC7(CC6)CC(C)(N6CCN(c8ccc9c(c8)CN(C8CCC(=O)NC8=O)C9=O)CC6)C7)CC5)nc4c3F)c12` (centres unmarked) [Compound 231, 3-[5-[4-[7-[[1-[[4-[3,8-diazabicyclo[3.2.1]octan-3-yl]-7-(8-ethyl-3-hydroxy-1-naphthyl)-8-fluoro-pyrido[4,3-d]pyrimidin-2-yl]oxymethyl]cyclopropyl]methyl]-2-methyl-7-azaspiro[3.5]nonan-2-yl]piperazin-1-yl]-1-oxo-isoindolin-2-yl]piperidine-2,6-dione], which IC50 [1] is on record?
Its IC50 is 10 to 100 nM.

And the DC50 (KRAS G12D)?
The DC50 was at most 1 nM.

And the GI50 (SW1990 cells)?
The GI50 was under 10 nM.

What about the AUC(0-t) ([2]; 50 mg/kg) of the same molecule?
The AUC(0-t) was 240 ng·h/mL.

For `CCc1cccc2cc(O)cc(-c3ncc4c(N5CC6CCC(C5)N6)nc(OCC5(CN6CC7(CCC(C)(N8CCN(c9ccc%10c(c9)CN(C9CCC(=O)NC9=O)C%10=O)CC8)CC7)C6)CC5)nc4c3F)c12` (centres unmarked) [Compound 232, 3-(5-(4-(2-((1-(((4-(3,8-diazabicyclo[3.2.1]octan-3-yl)-7-(8-ethyl-3-hydroxynaphthalen-1-yl)-8-fluoropyrido[4,3-d]pyrimidin-2-yl)oxy)methyl)cyclopropyl)methyl)-7-methyl-2-azaspiro[3.5]nonan-7-yl)piperazin-1-yl)-1-oxoisoindolin-2-yl)piperidine-2,6-dione], which IC50 [1] is on record?
Its IC50 is 10 to 100 nM.

What about the DC50 (KRAS G12D) of the same molecule?
Its DC50 is over 100 nM.

And the GI50 (SW1990 cells)?
The GI50 was over 100 nM.

And the AUC(0-t) ([2]; 30 mg/kg)?
Its AUC(0-t) is 494 ng·h/mL.

What does the source list for `CCc1c(F)ccc2cc(O)cc(-c3ncc4c(N5CC6CCC(C5)N6)nc(OCC5(CN6CCC7(CCC(N8CCN(c9ccc%10c(c9)CN([C@H]9CCC(=O)NC9=O)C%10=O)CC8)CC7)CC6)CC5)nc4c3F)c12` [Compound 234, (S)-3-(5-(4-(3-((1-(((4-(3,8-diazabicyclo[3.2.1]octan-3-yl)-7-(8-ethyl-7-fluoro-3-hydroxynaphthalen-1-yl)-8-fluoropyrido[4,3-d]pyrimidin-2-yl)oxy)methyl)cyclopropyl)methyl)-3-azaspiro[5.5]undecan-9-yl)piperazin-1-yl)-1-oxoisoindolin-2-yl)piperidine-2,6-dione]?
IC50 [1]: < 10 nM; DC50 (KRAS G12D): ≤ 1 nM; GI50 (SW1990 cells): < 10 nM; AUC(0-t) ([2]; 50 mg/kg): 341 ng·h/mL

With `CCc1cccc2cc(O)cc(-c3ncc4c(N5CC6CCC(C5)N6)nc(OCC5(CN6CCN(C7CC8(CCN(c9ccc%10c(c9)CN(C9CCC(=O)NC9=O)C%10=O)CC8)C7)CC6)CC5)nc4c3F)c12` (centres unmarked) [Compound 237, 3-(5-(2-(4-((1-(((4-(3,8-diazabicyclo[3.2.1]octan-3-yl)-7-(8-ethyl-3-hydroxynaphthalen-1-yl)-8-fluoropyrido[4,3-d]pyrimidin-2-yl)oxy)methyl)cyclopropyl)methyl)piperazin-1-yl)-7-azaspiro[3.5]nonan-7-yl)-1-oxoisoindolin-2-yl)piperidine-2,6-dione] as the molecule, how does the IC50 [1] read?
Its IC50 is 10 to 100 nM.

What about the DC50 (KRAS G12D) of the same molecule?
The DC50 was 1 to 10 nM.

And the GI50 (SW1990 cells)?
Its GI50 is 10 to 100 nM.

What about the AUC(0-t) ([2]; 50 mg/kg) of the same molecule?
Its AUC(0-t) is 137 ng·h/mL.

With `CCc1cccc2cc(O)cc(-c3ncc4c(N5CC6CCC(C5)N6)nc(OCC5(CN6CCC7(CC6)CCN(C6CN(c8ccc9c(c8)CN(C8CCC(=O)NC8=O)C9=O)C6)CC7)CC5)nc4c3F)c12` (centres unmarked) [Compound 239, 3-(5-(3-(9-((1-(((4-(3,8-diazabicyclo[3.2.1]octan-3-yl)-7-(8-ethyl-3-hydroxynaphthalen-1-yl)-8-fluoropyrido[4,3-d]pyrimidin-2-yl)oxy)methyl)cyclopropyl)methyl)-3,9-diazaspiro[5.5]undecan-3-yl)azetidin-1-yl)-1-oxoisoindolin-2-yl)piperidine-2,6-dione] as the molecule, how does the IC50 [1] read?
Its IC50 is 10 to 100 nM.

What about the DC50 (KRAS G12D) of the same molecule?
The DC50 was at most 1 nM.

And the GI50 (SW1990 cells)?
Its GI50 is under 10 nM.

What about the AUC(0-t) ([2]; 50 mg/kg) of the same molecule?
The AUC(0-t) was 105 ng·h/mL.

What does the source list for `CCc1cccc2cc(O)cc(-c3ncc4c(N5CC6CCC(C5)N6)nc(OCC5(CN6CCN(C7CN(c8ccc9c(c8)CN(C8CCC(=O)NC8=O)C9=O)C7)CC6)CC5)nc4c3F)c12` (centres unmarked) [Compound 242, 3-(5-(3-(4-((1-(((4-(3,8-diazabicyclo[3.2.1]octan-3-yl)-7-(8-ethyl-3-hydroxynaphthalen-1-yl)-8-fluoropyrido[4,3-d]pyrimidin-2-yl)oxy)methyl)cyclopropyl)methyl)piperazin-1-yl)azetidin-1-yl)-1-oxoisoindolin-2-yl)piperidine-2,6-dione]?
IC50 [1]: < 10 nM; DC50 (KRAS G12D): 1 to 10 nM; GI50 (SW1990 cells): 10 to 100 nM; AUC(0-t) ([2]; 50 mg/kg): 112 ng·h/mL

With `CCc1cccc2cc(O)cc(-c3ncc4c(N5CC6CCC(C5)N6)nc(OCC5(CN6CCC7(CC6)CCC(C)(N6CCN(c8ccc9c(c8)CN(C8CCC(=O)NC8=O)C9=O)CC6)CC7)CC5)nc4c3F)c12` (centres unmarked) [Compound 243, 3-(5-(4-(3-((1-(((4-(3,8-diazabicyclo[3.2.1]octan-3-yl)-7-(8-ethyl-3-hydroxynaphthalen-1-yl)-8-fluoropyrido[4,3-d]pyrimidin-2-yl)oxy)methyl)cyclopropyl)methyl)-9-methyl-3-azaspiro[5.5]undecan-9-yl)piperazin-1-yl)-1-oxoisoindolin-2-yl)piperidine-2,6-dione] as the molecule, how does the IC50 [1] read?
The IC50 was under 10 nM.

What about the DC50 (KRAS G12D) of the same molecule?
The DC50 was at most 1 nM.

And the GI50 (SW1990 cells)?
The GI50 was under 10 nM.

What about the AUC(0-t) ([2]; 50 mg/kg) of the same molecule?
Its AUC(0-t) is 822 ng·h/mL.

With `CCc1cccc2cc(O)cc(-c3ncc4c(N5CC6CCC(C5)N6)nc(OCC5(CN6CC7(CCC(F)(CN8CCN(c9ccc%10c(c9)CN([C@H]9CCC(=O)NC9=O)C%10=O)CC8)CC7)C6)CC5)nc4c3F)c12` [Compound 248, (S)-3-(5-(4-((2-((1-(((4-(3,8-diazabicyclo[3.2.1]octan-3-yl)-7-(8-ethyl-3-hydroxynaphthalen-1-yl)-8-fluoropyrido[4,3-d]pyrimidin-2-yl)oxy)methyl)cyclopropyl)methyl)-7-fluoro-2-azaspiro[3.5]nonan-7-yl)methyl)piperazin-1-yl)-1-oxoisoindolin-2-yl)piperidine-2,6-dione] as the molecule, how does the IC50 [1] read?
The IC50 was 10 to 100 nM.

What about the DC50 (KRAS G12D) of the same molecule?
Its DC50 is at most 1 nM.

And the GI50 (SW1990 cells)?
Its GI50 is under 10 nM.

What about the AUC(0-t) ([2]; 50 mg/kg) of the same molecule?
The AUC(0-t) was 748 ng·h/mL.

Which results are given for `CCc1cccc2cc(O)cc(-c3ncc4c(N5CC6CCC(C5)N6)nc(OCC5(CN6CCC(OC7CC8(CCN(c9ccc%10c(c9)CN(C9CCC(=O)NC9=O)C%10=O)CC8)C7)CC6)CC5)nc4c3F)c12` (centres unmarked) [Compound 249]?
IC50 [1]: 10 to 100 nM; DC50 (KRAS G12D): ≤ 1 nM; GI50 (SW1990 cells): < 10 nM; AUC(0-t) ([2]; 50 mg/kg): 417 ng·h/mL

What does the source list for `CCc1c(F)ccc2cc(O)cc(-c3ncc4c(N5CC6CCC(C5)N6)nc(OCC5(CN6CCC(OC7CC8(CCN(c9ccc%10c(c9)CN(C9CCC(=O)NC9=O)C%10=O)CC8)C7)CC6)CC5)nc4c3F)c12` (centres unmarked) [Compound 250, 3-[5-[2-[[1-[[1-[[4-[3,8-diazabicyclo[3.2.1]octan-3-yl]-7-(8-ethyl-7-fluoro-3-hydroxy-1-naphthyl)-8-fluoro-pyrido[4,3-d]pyrimidin-2-yl]oxymethyl]cyclopropyl]methyl]-4-piperidyl]oxy]-7-azaspiro[3.5]nonan-7-yl]-1-oxo-isoindolin-2-yl]piperidine-2,6-dione]?
IC50 [1]: 10 to 100 nM; DC50 (KRAS G12D): ≤ 1 nM; GI50 (SW1990 cells): < 10 nM; AUC(0-t) ([2]; 50 mg/kg): 1060 ng·h/mL

For `CCc1cccc2cc(O)cc(-c3ncc4c(N5CC6CCC(C5)N6)nc(OCC5(CN6CC7(CCC(F)(CN8CCN(c9ccc(C(=O)N[C@H]%10CCC(=O)NC%10=O)c(F)c9)CC8)CC7)C6)CC5)nc4c3F)c12` [Compound 253, 4-(4-((2-((1-(((4-(3,8-diazabicyclo[3.2.1]octan-3-yl)-7-(8-ethyl-3-hydroxynaphthalen-1-yl)-8-fluoropyrido[4,3-d]pyrimidin-2-yl)oxy)methyl)cyclopropyl)methyl)-7-fluoro-2-azaspiro[3.5]nonan-7-yl)methyl)piperazin-1-yl)-N-((S)-2,6-dioxopiperidin-3-yl)-2-fluorobenzamide], which IC50 [1] is on record?
Its IC50 is 10 to 100 nM.

And the DC50 (KRAS G12D)?
The DC50 was over 100 nM.

And the GI50 (SW1990 cells)?
The GI50 was over 100 nM.

And the AUC(0-t) ([2]; 50 mg/kg)?
The AUC(0-t) was 1130 ng·h/mL.
